Test results reported in a melting point compilation (Tetko et al.; mined from patent text by program, amines drawn as free bases though some values may be those of a salt).
Residues, ends and D or L forms follow the SMILES beside them. *: point of attachment. Tos = Cc1ccc(S(=O)(=O)*)cc1

melting point | Compound
244 to 246 °C | O=S1(=O)NC(C2CCCCC2)Nc2ccc(S(=O)(=O)N3CCCC3)cc21 (centres undefined)
177 to 179 °C | [N-]=[N+]=Nc1nc2c(N)ncnc2n1C1CC(O)C(CO)O1 (centres undefined)
> 300 °C | CC(C)(C)n1cnc2c(O)nc3ccccc3c21
92 to 94 °C | COCCN1CCN(CCCOc2ccc3nc(C#N)nc(NCC(C)(C)C)c3c2)CC1
170 °C | COc1cccc(Oc2c(NS(=O)(=O)c3ccc(C(C)(C)C)cc3)ncnc2OCCOc2cccnn2)c1
52 to 53 °C | ClCc1nc2cc(Cl)cc(Cl)c2o1
172 to 173 °C | CC(=O)OCC1CN(C(=O)OC(C)(C)C)c2cc(OCc3ccccc3)c3ncccc3c21 (centres undefined)
121 °C | O=C(c1ncc[nH]1)C1CCN(Cc2ccccc2)CC1
96 to 97 °C | CSc1cc(C)nc(SC)c1NC(=O)CN1CCN(CCSc2nc3ccccc3[nH]2)CC1
128 to 130 °C | COc1ccc2c(c1OC)CCC2C(=O)O (centres undefined)
155 to 158 °C | COc1cc(N)cc(C)c1OCCCN1CCN(c2cccc3sccc23)CC1
128 to 130 °C | CCOC(=O)Oc1ccc(C=CC(=O)N2CCN(CC(=O)N3CCCC3)CC2)cc1
188 °C | CCOc1ccc(-c2nnc(C(N)=O)o2)cc1
158 to 160 °C | CN1C(c2ccc(Cl)cc2)=C(C#N)CC1C(F)(F)F (centres undefined)
59.5 to 60 °C | CCOC(=O)c1cc(Cl)c(F)c(Cl)c1
125 to 127 °C | OCc1cccc2c(Br)c3ccccc3cc12
87 to 89 °C | O=C(CCC(=O)c1ccccc1)NC1CNCCO1 (centres undefined)
178 to 180 °C | Cc1ccc(S(=O)(=O)N2CCC[C@H]2C(=O)N[C@@H](CC(N)=O)C(=O)O)cc1 (Tos-Pro-Asn-OH)
155 to 163 °C | O=C(O)c1cc2cc(OCCNC[C@@H](O)c3csc(C(F)(F)F)n3)ccc2o1
161 to 162 °C | COc1ncnc(-c2cc([N+](=O)[O-])c(C#N)cc2F)c1Cl
79 to 81.1 °C | COc1cc(OC)cc(-c2nc[nH]c2-c2ccc(N(C)C)cc2)c1
177 to 180 °C | CC1Cc2cc3c(cc2C(c2ccc([N+](=O)[O-])cc2)=NN1c1nc(=O)n(C)s1)OCO3 (centres undefined)
113 to 114 °C | Cc1nc(Sc2ccc(C(F)(F)F)cn2)sc1CC(=O)O
244 to 246 °C | CCN(CC)Cc1ccc(CN2C(=O)COc3ccc(C=C4SC(=O)NC4=O)cc32)cc1
126 to 128 °C | COc1ccc2c(c1)cc(C1(O)C=CC(=O)C=C1)n2S(=O)(=O)c1ccccc1

melting point | Compound
140 to 141 °C | CCCCc1nc2c(C(F)(F)F)cccc2c(O)c1C(=O)O
92 to 93 °C | CC(=O)OC1C(N2CCCC2=O)c2sccc2OC1(C)C (centres undefined)
88 to 92 °C | CCCc1c(C#CCCCCOc2ccccc2CCC(=O)O)ccc2c1OCCC2=O
65 °C | CN(C)C(=O)c1cncc([N+](=O)[O-])c1
262 to 265 °C | CCN(CC)C(=O)c1c2nc3c(C(=O)N(CC)CC)c(N)c(O)c(C)c3oc-2c(C)c(=O)c1N
64.5 to 65 °C | FC(F)(F)c1[nH]c(-c2ccc(Cl)cc2)c(Br)c1C(F)(F)F
150 to 151 °C | O=C(O)c1cccc(OCc2cc(Cl)cc(Cl)c2)c1OCc1cc(Cl)cc(Cl)c1
155 to 156 °C | CCOC(=O)C1=C(C)NC(=S)N(C(=O)OCC)C1c1cccc(C#N)c1 (centres undefined)
97 °C | c1coc2cc3ccnc3cc2c1
166 to 167 °C | CCOC(=O)C(C)(C)OC(=O)c1cc(-n2c(=O)cc(CC)[nH]c2=O)c(F)cc1Cl
99 to 100 °C | COC(=O)c1ccc2c(c1)CCN2Cc1cccc([N+](=O)[O-])c1
243 to 245 °C | CC1CCc2c(N3CCCC3)c(F)cc3c(=O)c(C(=O)O)cn1c23 (centres undefined)
201 to 203 °C | CC(C)Sc1ccoc1C(=O)Nc1nnn[nH]1
88 to 91 °C | COc1ccc(CC[C@H]2CN(Cc3ccccc3)CCN2Cc2ccccc2)cc1
238 to 242 °C | CCOC(=O)c1c[nH]c2c(C)csc2c1=O
132 to 135 °C | CCN1CCCC1CNC(=O)c1c(C)[nH]c2ccccc12 (centres undefined)
114 °C | CCN1CCN2C(=O)c3ccccc3C12c1ccc(Cl)cc1 (centres undefined)
249 to 250 °C | NC(=O)c1ccc(N2CCN(Cc3cn4ccccc4n3)CC2)cc1
211 to 214 °C | O=C(O)C1=Cc2c(ccc(Cl)c2-c2ccsc2)OC1C(F)(F)F (centres undefined)
169 to 170 °C | Cc1ccccc1NC(=O)CN1CC2CCC(C1)N2S(=O)(=O)c1ccccc1
117 to 118 °C | CCCCC1(CCCC)c2cc(Br)ccc2-c2ccc(Br)cc21
218 °C | CCCC1=C(C#N)C(c2ccccc2C#N)c2c[nH]nc2N1 (centres undefined)
222 to 225 °C | CC(=O)NC1=NN(c2cccc(C)c2)CC1
104 to 105 °C | CCCCCCCCCN=C=O
203 to 204 °C | CN(C)C(=O)Nc1snc(N(C)C)c1C#N

melting point | Compound
255 to 257 °C | CCOC(=O)c1c2n(c3cc(Cl)c(Cl)cc3c1=O)CCS2
129 to 131 °C | COc1ccc(CNC(=O)c2ccc([N+](=O)[O-])cc2N)cc1
56 to 58 °C | CC(C)(C)[Si](C)(C)OCCN(CCON1C(=O)c2ccccc2C1=O)CCON1C(=O)c2ccccc2C1=O
84 to 86 °C | CCOC(=O)CCCCc1cn(C(c2ccccc2)(c2ccccc2)c2ccccc2)cn1
123 to 126 °C | CCCc1c(OCCCCCOc2ccccc2/C=C/C(=O)O)ccc2c1OCCC2=O
126 to 128 °C | CONC(=O)c1ccc(CC(C)(C)C=O)cc1
142 to 144 °C | CC(=O)c1ccc2c(c1)Cc1cccnc1O2
156 to 159 °C | COC(=O)c1ccc(NC(=O)OCC2c3ccccc3-c3ccccc32)cc1O
187 to 189 °C | COc1c(N2C[C@H](CF)[C@](C)(N)C2)c(F)cc2c(=O)c(C(=O)O)cn([C@@H]3C[C@@H]3F)c12
170 to 180 °C | C=CCn1c(N)c(N=O)c(=O)n(CC=C)c1=O
50 to 51 °C | Cc1ccc(C2=NC(C)(C)[C@@H](c3ccncc3)C2)c(C)c1
55 to 57 °C | O=[N+]([O-])c1ccc(OCC=CCBr)c([N+](=O)[O-])c1
106 to 107 °C | Cc1ccc(S(=O)(=O)Oc2ccc(S(=O)(=O)C3(C(=O)C(C)C)CC3)cc2)cc1
99 °C | COC(=O)C(O)C(NCc1ccccc1)c1ccccc1 (centres undefined)
116 to 117 °C | Cc1oc(-c2ccccc2)nc1CCc1ccc(CCCCCC2OC(=O)NC2=O)cc1 (centres undefined)
260 to 264 °C | O=C(O)Cn1c(=O)c(=O)[nH]c2c([N+](=O)[O-])c(Br)c(Br)cc21
66 to 69 °C | Cc1nc(N2C[C@@H](C)N(Cc3ccc(F)cc3)C2=O)sc1C(=O)NCc1cncs1
196 to 198 °C | CC(=O)NC[C@H]1CN(c2ccc(C(=O)c3cnc4ccccn34)c(F)c2)C(=O)O1
84 to 85 °C | CC(C)[C@H](NC(=O)N(C)Cc1ccccn1)C(=O)N[C@@H](Cc1ccccc1)[C@@H](O)C[C@H](Cc1ccccc1)NC(=O)OC(C)(C)C
136 to 138 °C | CCOC(=O)c1cc2ccc(Oc3ccc(N)cc3)cc2oc1=O
165 to 168 °C | CCOC(Cc1ccc2oc(Cc3nc(-c4ccccc4)oc3C)cc2c1)C(N)=O (centres undefined)
200 to 207 °C | COc1cc(CNC(=O)c2cc3c(=O)n(Cc4ccc([N+](=O)[O-])nc4)c(=O)n(C)c3s2)ccn1
164 to 165 °C | CC(=O)c1cc(S(=O)(=O)c2cccc(F)c2)ccc1O
173 to 176 °C | CCCCc1nc2c(N)nc3ccccc3c2n1CCCC(C)=O
98 °C | COC(=O)C1(Sc2cc(N3C(=O)C4=CCCCC4C3=O)c(F)cc2Cl)CCC1 (centres undefined)

melting point | Compound
102 °C | CC(=Cc1cccc([N+](=O)[O-])c1)C(=O)Oc1ccc(Cl)cc1
124 to 127 °C | CSc1ncc(Br)c(P(=O)(c2ccccc2)c2ccccc2)n1
110 to 114 °C | O=C(C1CC1)N1CCC2(CC1)OC(c1ccccc1)C1CCCCN12 (centres undefined)
171 to 172 °C | COc1ccc(NC(=O)c2ccc(F)cc2)cc1
125 to 128 °C | COC(=O)c1ccncc1C(=O)c1ccc(-n2ccnc2)cc1
156 to 158 °C | CC(C)(C)c1ccc(COCCCCCCNC(=O)c2cc(-c3cccc(C(F)(F)F)c3)c(OCC(=O)O)c(-c3cccc(C(F)(F)F)c3)c2)cc1
112 to 113 °C | Cn1nc(-c2ccccc2O)c2sccc21
137 to 138 °C | Cc1cc(C)c(/C=C/[C@H]2C[C@H](O)CC(=O)O2)c(-c2ccc(F)c(CO)c2)c1 (relative stereo)
183 °C | O=[N+]([O-])c1ccc(C=Cc2nc(Nc3ccccc3)c3ccccc3n2)o1
158 to 159 °C | CN(C)c1ccc(C2(Oc3ccccc3)OC(=O)c3ccc(N(C)C)cc32)cc1 (centres undefined)
127 to 129 °C | O=C(c1cccc2[nH]ccc12)N1CCOCC1
252 to 253 °C | CCc1cc(-c2ccc(Cl)cc2)nc2c(C(=O)Nc3cccc(S(N)(=O)=O)c3)cnn12
131 °C | CCOc1ccc(C=CC(=O)c2c(O)cc(OCC)cc2OCC)cc1
97 to 99 °C | CC(C)(C)Nc1nccc(C#Cc2ccc(F)cc2)n1
228 to 231 °C | O=C1Nc2ccccc2C1c1ncnc2c1cnn2C1CCCC1 (centres undefined)
85 to 87 °C | O=C1c2ccccc2C(=O)N1CCCCI
50 to 51 °C | COC(=O)CC(CCc1ccc(C)cc1)NC(C)=O (centres undefined)
143 to 144 °C | Cc1ccc(-c2cccc3cc(Cc4cccc(C(F)(F)F)c4)sc23)cc1C(=O)NCC(N)=O
28.5 °C | CCCCCC[C@H]1C[C@@H](C)OC1=O (relative stereo)
157 to 158 °C | COc1c(OC)c(OC)c2c(=O)cc(-c3ccc(OCc4ccccc4)c(OCc4ccccc4)c3)oc2c1OC
224 to 225 °C | CC(=O)N1CCN(Cc2cnc(-c3cc4c(Cl)ccc(N(C)S(=O)(=O)c5cccs5)c4[nH]3)s2)CC1
107 to 109 °C | CC(=O)OCCCc1c2ccccc2cc2ccccc12
88 to 90 °C | CCC(=O)NCC1CC1c1cccc2nc(C)cn12 (centres undefined)

Compound | melting point
CC(N)C(=O)Nc1ccc([N+](=O)[O-])cc1C(=O)c1ccccc1Cl (single isomer, unassigned; (+)) | 132 °C
